Tests used:
[1] = Liver microsomal stability, rat; type: in vitro ADME; settings: male, pH 7.4, liver microsomes
Method: Mouse hepatic microsomes were isolated from pooled (50), perfused livers of male Balb/c mice. Rat hepatic microsomes were isolated from pooled (15), perfused livers of male Wistar rats. Isolation was performed according to the standard protocol (Hill, J. R. in Current Protocols in Pharmacology 7.8.1-7.8.11, Wiley Interscience, 2003). The batches of microsomes were tested for quality control using Imipramine, Propranolol and Verapamil as reference compounds.
(§1) Microsomal incubations were carried out in 96-well plates in 5 aliquots of 40 μL each (one for each time point). Liver microsomal incubation medium contained PBS (100 mM, pH 7.4), MgCl2 (3.3 mM), NADPH (3 mM), glucose-6-phosphate (5.3 mM), glucose-6-phosphate dehydrogenase (0.67 units/ml) with 0.42 mg of liver microsomal protein per ml. Control incubations were performed replacing the NADPH-cofactor system with PBS. Test compound (2 μM, final solvent concentration 1.6%) was incubated with microsomes at 37° C., shaking at 100 rpm. Incubations were performed in duplicates. Five time points over 40 minutes have been analyzed. The reactions were stopped by adding 12 volumes of 90% acetonitrile-water to incubation aliquots, followed by protein sedimentation by centrifuging at 5500 rpm for 3 minutes. […]. Supernatants were analyzed using the HPLC system coupled with tandem mass spectrometer (API3000 PE Sciex). Acquisition and analysis of the data were performed using Analyst 1.5.2 software (PE Sciex). The elimination constant (kel), half-life (t½) and intrinsic clearance (Clint) were determined in plot of […] versus time, using linear regression analysis:
Mouse hepatic microsomes were isolated from pooled, perfused livers of male CD1 mice. Rat hepatic microsomes were isolated from pooled, perfused livers of male Sprague Dawley rats. Dog hepatic microsomes were isolated from pooled, perfused livers of male Beagle dogs. The batches of microsomes were tested for quality control using Testosterone, Propranolol and Caffeine as reference compounds.
(§2) A 10 mM stock solution of compound in DMSO is diluted three-fold in DMSO. This pre-diluted compound solution is then further diluted to 2 μM in a 50 mM phosphate buffer (PBS, pH 7.4) and pre-warmed at 37° C. This compound dilution is mixed F2 with microsomal/cofactor mix at 37° C. under shaking at 300 rpm. Final reaction conditions are: 100 μL incubation volume, 1 μM of test compound (in duplicate), <0.1% DMSO, 0.5 mg/mL microsomes, 0.6 U/mL Glucose-6-phosphate-dehydrogenase (G6PDH, Roche, 10127671001), 3.3 mM MgCl2 (Sigma, M2670), 3.3 mM glucose-6-phosphate (Sigma, G-7879) and 1.3 mM NADP+ (Sigma, N-0505).
(§3) After 60 min of incubation at 300 rpm and 37° C., the reaction was stopped with 3 volumes of STOP solution (acetonitrile/MeOH 2/1 with diclofenac as internal standard). For the time point zero, 3 volumes of STOP solution were added to the compound dilution before the microsome mix was added. Six time points over 60 minutes have been analyzed. The samples of all time points were centrifuged, filtered and the supernatant analyzed by LCMS/MS (systems API4000).
(§4) The instrument responses (peak areas/IS peak area) were referenced to the zero time-point samples (considered as 100%) in order to determine the percentage of compound remaining.
(§5) Testosterone (1 μM) and Propranolol and Caffeine (1 μM) were used as reference compounds, being unstable and stable compounds respectively. If the microsomal stability values for these controls are not in the range determined by the historical data, the assay is not validated. The solubility of the compound in the final test concentration in 50 mM buffer pH 7.4 is checked by microscope to indicate whether precipitation is observed or not. If a precipitate is observed, no data of microsomal stability is generated.

[2] = Liver microsomal stability, human; type: in vitro ADME; settings: pH 7.4, liver microsomes
Method: as §1, §2, §3, §4, §5

[3] = target: CYP1A2 (Homo sapiens (Human), UniProt P05177); assay: in vitro
Chain of CYP1A2 (P05177 whole entry): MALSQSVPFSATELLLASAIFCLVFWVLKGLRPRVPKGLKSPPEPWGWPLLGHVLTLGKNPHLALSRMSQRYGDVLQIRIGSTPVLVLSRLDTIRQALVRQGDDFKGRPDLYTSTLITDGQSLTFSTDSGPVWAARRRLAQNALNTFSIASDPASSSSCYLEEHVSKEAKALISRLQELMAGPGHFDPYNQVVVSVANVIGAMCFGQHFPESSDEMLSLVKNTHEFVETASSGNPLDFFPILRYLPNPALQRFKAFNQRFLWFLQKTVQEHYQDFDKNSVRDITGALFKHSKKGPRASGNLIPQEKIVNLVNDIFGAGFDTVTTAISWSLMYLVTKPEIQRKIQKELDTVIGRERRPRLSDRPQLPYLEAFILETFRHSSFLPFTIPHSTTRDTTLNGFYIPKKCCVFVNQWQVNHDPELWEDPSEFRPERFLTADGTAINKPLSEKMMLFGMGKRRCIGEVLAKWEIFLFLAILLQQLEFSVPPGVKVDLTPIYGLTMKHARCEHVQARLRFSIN
Method: (§6) The aim of this assay is to determine the inhibitory potential of a test compound. A major concern for drug-drug-interaction is cytochrome P450 inhibition. Reversible CYP inhibition was determined in human liver microsomes using specific probe substrates for human cytochrome P450 isoenzymes CYP1A2, 2C9, 2C19, 2D6 and 3A4.
(§7) The potential for CYP450 inhibition was assessed by performing in vitro inhibition studies using fluorogenic CYP450 substrates with the corresponding CYP450 enzymes and NADPH regeneration system (Vivid CYP450 Screening Kits) with some minor changes to the manufacturer's protocols. The fluorescent signal produced from reaction is directly proportional to the cytochrome P450 activity. In the cases when tested compounds interfere with the CYP450 enzyme-substrate reaction, the fluorescent signal decreases. In brief, the tested compounds were first dissolved in DMSO at 100× concentration (1 mM), and diluted in buffer to 2.5× concentration (25 μM). Then the 2.5× compound solutions were mixed with the Master Pre-mix consisting of Human CYP450+Oxidoreductase and NADP+Regeneration System (glucose-6-phosphate and glucose-6-phosphate dehydrogenase). After 10 minutes pre-incubation, the enzymatic reaction was initiated by the addition of a mix of NADPH and the appropriate CYP450 substrates. The plate was incubated for the desired reaction time (25 min for CYP1A2, CYP2C9, CYP2D6, and CYP3A4, 60 min for CYP2C19) after which Stop Reagent was added and fluorescence measured using SpectraMax Paradigm Multi-Mode Microplate Reader. All test points were performed in quadruplicates at concentration 10 μM (1% DMSO).
(§8) A 10 mM stock solution of test compound is prepared in methanol. This stock is further serially diluted 1:3 in methanol and then added to mixture containing 50 mM potassium phosphate buffer pH7.4, human liver microsomes (BD Gentest) and probe substrate. After pre-warming 5 min at 37° C., the reaction is started by adding co-factor mix ([…] glucose-6-phosphate, 1.7 mg/mL NADP, 6 U/mL of glucose-6-phosphate dehydrogenase), resulting in a final concentration of test compound at 10 μM (2% MeOH).
(§9) Final concentrations of co-factor mix components are as follows: 1.56 mg/mL glucose-6-phosphate, 0.34 mg/mL NADP, 1.2 U/mL of glucose-6-phosphate dehydrogenase.
(§10) After incubation at 37° C., the reaction (aliquot of 50 μL) is terminated with 150 μL CH3CN:MeOH (2:1) solution with internal standard (warfarin for 2C9, diclofenac for all other tested isoforms). Samples are centrifuged and the supernatant fractions analyzed by LC-MS/MS.
(§11) The instrument responses (ratio of test compound and internal standard peak areas) are referenced to those for solvent controls (assumed as 100%) in order to determine the percentage reduction in probe metabolism. Percent of control activity vs. concentration plots are generated and fitted using GraphPad Prism software to generate IC50.

[4] = target: CYP3A4 (Homo sapiens (Human), UniProt P08684); assay: CYP inhibition, CYP3A4; type: in vitro ADME; settings: human; test compound at 10 μM, probe not marked; read-out: % Inhibition (PIN) 3A4
Chain of CYP3A4 (P08684 whole entry): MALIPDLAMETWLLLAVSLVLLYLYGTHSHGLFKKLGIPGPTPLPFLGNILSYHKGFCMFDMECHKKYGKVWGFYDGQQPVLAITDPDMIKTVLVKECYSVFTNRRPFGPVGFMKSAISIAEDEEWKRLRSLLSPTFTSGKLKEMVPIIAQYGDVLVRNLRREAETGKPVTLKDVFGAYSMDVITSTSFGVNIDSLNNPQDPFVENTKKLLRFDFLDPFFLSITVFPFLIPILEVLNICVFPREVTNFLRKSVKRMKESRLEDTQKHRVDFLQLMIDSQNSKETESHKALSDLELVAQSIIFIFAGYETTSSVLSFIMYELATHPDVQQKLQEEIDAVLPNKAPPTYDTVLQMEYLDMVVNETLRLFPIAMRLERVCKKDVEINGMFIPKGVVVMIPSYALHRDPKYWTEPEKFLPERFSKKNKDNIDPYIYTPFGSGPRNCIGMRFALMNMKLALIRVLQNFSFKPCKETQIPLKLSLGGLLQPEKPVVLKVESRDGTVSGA
Method: as §6, §7, §8, §9, §10, §11

## CCCCOC(=O)NS(=O)(=O)c1ccc(C(F)(F)F)cc1N1CCN(Cc2nc3ccccc3n2C)CC1 [Compound A-09, butyl N-[2-[4-[(1-methylbenzimidazol-2-yl)methyl]piperazin-1-yl]-4-(trifluoromethyl)phenyl]sulfonylcarbamate]
[1]
  microsomal CLint: 33 µL/min/mg
[2]
  microsomal CLint: 37 µL/min/mg

## CCCCNC(=O)NS(=O)(=O)c1ccc(C(F)(F)F)cc1N1CCN(Cc2nc3ccccc3n2C)CC1 [Compound A-10, 1-butyl-3-[2-[4-[(1-methylbenzimidazol-2-yl)methyl]piperazin-1-yl]-4-(trifluoromethyl)phenyl]sulfonyl-urea]
[1]
  microsomal CLint: 28 µL/min/mg
[3]
  inhibition at 10 µM: 23%
[2]
  microsomal CLint: 99 µL/min/mg
[4]
  inhibition at 10 µM: 54.2%

## CCCCNC(=O)NS(=O)(=O)c1ccc(C)cc1N1CCN(Cc2nc3ccccc3n2C)CC1 [Compound A-12, 1-butyl-3-[4-methyl-2-[4-[(1-methylbenzimidazol-2-yl)methyl]piperazin-1-yl]phenyl]sulfonyl-urea]
[1]
  microsomal CLint: 23 µL/min/mg
[2]
  microsomal CLint: 259 µL/min/mg

## CC(C)Cc1ccc(-c2nn[nH]n2)c(N2CCN(Cc3nc4ccccc4n3C)CC2)c1 [Compound A-20, 2-[[4-[5-isobutyl-2-(2H-tetrazol-5-yl)-phenyl]piperazin-1-yl]methyl]-1-meth-yl-benzimidazole]
[1]
  microsomal CLint: 28 µL/min/mg
[2]
  microsomal CLint: 24 µL/min/mg

## CC(C)Oc1ccc(-c2nn[nH]n2)c(N2CCN(Cc3nc4ccccc4n3C)CC2)c1 [Compound A-24, 2-[[4-[5-isopropoxy-2-(2H-tetrazol-5-yl)phenyl]piperazin-1-yl]methyl]-1-methyl-benzimidazole]
[1]
  microsomal CLint: 7 µL/min/mg
[3]
  inhibition at 10 µM: 27.4%
[2]
  microsomal CLint: 8 µL/min/mg
[4]
  inhibition at 10 µM: 59.5%

## CC(C)Cc1ccc(-c2nn[nH]n2)c(N2CCN(Cc3nc4ccccc4c(=O)[nH]3)CC2)c1 [Compound A-31, 2-[[4-[5-isobutyl-2-(2H-tetrazol-5-yl)phenyl]piperazin-1-yl]methyl]-3H-quinazolin-4-one]
[1]
  microsomal CLint: 5 µL/min/mg
[3]
  inhibition at 10 µM: 6.09%
[2]
  microsomal CLint: 8 µL/min/mg
[4]
  inhibition at 10 µM: 94.6%

## CC(C)Oc1ccc(-c2nn[nH]n2)c(N2CCN(Cc3nc4ccccc4c(=O)[nH]3)CC2)c1 [Compound A-32]
[1]
  microsomal CLint: 13 µL/min/mg
[3]
  inhibition at 10 µM: 7.17%
[2]
  microsomal CLint: 10 µL/min/mg
[4]
  inhibition at 10 µM: 68.2%

## CC(C)Oc1ccc(-c2nn[nH]n2)c(N2CCN(Cc3nc4ccccc4s3)CC2)c1 [Compound A-51, 2-[[4-[5-isoprop-oxy-2-(2H-tetrazol-5-yl)phenyl]piper-azin-1-yl]methyl]-1,3-benzothiazole]
[1]
  microsomal CLint: 1 µL/min/mg
[2]
  microsomal CLint: 12 µL/min/mg

## Cc1cc(CN2CCN(c3cc(CC(C)C)ccc3-c3nn[nH]n3)CC2)no1 [Compound A-82, 3-[[4-[5-isobutyl-2-(2H-tetrazol-5-yl)phenyl]piperazin-1-yl]methyl]-5-methyl-isoxazole]
[1]
  microsomal CLint: 4 µL/min/mg
[3]
  inhibition at 10 µM: 9.89%
[2]
  microsomal CLint: 15 µL/min/mg
[4]
  inhibition at 10 µM: 50.6%

## CC(C)Cc1ccc(-c2nn[nH]n2)c(N2CCN(Cc3nccn3C)CC2)c1 [Compound A-83, 1-[5-isobutyl-2-(2H-tetrazol-5-yl)-phenyl]-4-[(1-meth-ylimidazol-2-yl)-methyl]piperazine]
[1]
  microsomal CLint: 3 µL/min/mg
[3]
  inhibition at 10 µM: 2.61%
[2]
  microsomal CLint: 6 µL/min/mg
[4]
  inhibition at 10 µM: 38.7%

## CC(C)Cc1ccc(-c2nn[nH]n2)c(N2CCN(Cc3ccnn3C)CC2)c1 [Compound A-84, 1-[5-isobutyl-2-(2H-tetrazol-5-yl)phenyl]-4-[(1-methylpyrazol-5-yl)methyl]piperazine]
[1]
  microsomal CLint: 7 µL/min/mg
[3]
  inhibition at 10 µM: 5.6%
[2]
  microsomal CLint: 40 µL/min/mg
[4]
  inhibition at 10 µM: 49.1%

## CC(C)Cc1ccc(-c2nn[nH]n2)c(N2CCN(Cc3ncccn3)CC2)c1 [Compound A-88]
[1]
  microsomal CLint: 7 µL/min/mg
[3]
  inhibition at 10 µM: 22.5%
[2]
  microsomal CLint: 6 µL/min/mg
[4]
  inhibition at 10 µM: 21.1%

## CC(C)Cc1ccc(-c2nn[nH]n2)c(N2CCN(Cc3cccnn3)CC2)c1 [Compound A-90, 3-[[4-[5-isobutyl-2-(2H-tetrazol-5-yl)phenyl]piperazin-1-yl]methyl]pyridazine]
[1]
  microsomal CLint: 4 µL/min/mg
[3]
  inhibition at 10 µM: 10.3%
[2]
  microsomal CLint: 7 µL/min/mg
[4]
  inhibition at 10 µM: 55.3%

## CC(C)Cc1cc(F)c(-c2nn[nH]n2)c(N2CCN(Cc3cccnn3)C(C)C2)c1 (stereo not shown) [Compound A-173, 3-[[4-[3-fluoro-5-isobutyl-2-(2H-tetrazol-5-yl)phenyl]-2-methyl-piperazin-1-yl]methyl]pyridazine]
[1]
  microsomal CLint: 12 µL/min/mg
[3]
  inhibition at 10 µM: 18.5%
[2]
  microsomal CLint: 4 µL/min/mg
[4]
  inhibition at 10 µM: 29.4%

## CCC1CN(Cc2cccnn2)CCN1c1cc(CC(C)C)cc(F)c1-c1nn[nH]n1 (stereo not shown) [Compound A-181, 3-[[3-ethyl-4-[3-fluoro-5-isobutyl-2-(2H-tetrazol-5-yl)phenyl]piperazin-1-yl]methyl]pyridazine]
[1]
  microsomal CLint: 5 µL/min/mg
[2]
  microsomal CLint: 12 µL/min/mg

## CC(C)Cc1cc(F)c(-c2nn[nH]n2)c(N2CC(C)N(Cc3cccnn3)CC2C)c1 (stereo not shown) [Compound A-183, 3-[[4-[3-fluoro-5-isobutyl-2-(2H-tetrazol-5-yl)phen-yl]-2,5-dimethyl-piperazin-1-yl]-methyl]pyridazine]
[1]
  microsomal CLint: 7 µL/min/mg
[2]
  microsomal CLint: 7 µL/min/mg
